The values below are quoted from earlier work in patent US20250161538A1, “POLYMER-BASED MATERIAL WITH ANTI-BACTERIAL PROPERTIES WITH IMPROVED MECHANICAL STRENGTH FOR DENTAL APPLICATIONS” (priority 2022, published 2025).

In this data set the test system is adult rat pulp tissue. The following applies: in vivo, po.

As to `[Ag+]` [Ag ions, silver], the cytotoxic effect entry is on record as “induce cytotoxic effect”.
